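48-hour exposure; five concentrations; linearly interpolated endpoints. The concentration for 50% growth inhibition is given as GI50. TGI: concentration producing complete growth inhibition.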
What was measured:
Assay in all cases: growth of human tumour cells (NCI), 48 h
[1] = system: 786-0 renal
[2] = system: A498 renal
[3] = system: A549 NSCLC
[4] = system: ACHN renal
[5] = system: BT-549 breast
[6] = system: CAKI-1 renal
[7] = system: CCRF-CEM leukemia
[8] = system: COLO 205 colon
[9] = system: DU-145 prostate
[10] = system: EKVX NSCLC
[11] = system: HCC-2998 colon
[12] = system: HCT-116 colon
[13] = system: HCT-15 colon
[14] = system: HL-60(TB) leukemia
[15] = system: HOP-62 NSCLC
[16] = system: HOP-92 NSCLC
[17] = system: HS 578T breast
[18] = system: HT29 colon
[19] = system: IGROV1 ovarian
[20] = system: K-562 leukemia
[21] = system: KM12 colon
[22] = system: LOX IMVI melanoma
[23] = system: M14 melanoma
[24] = system: MALME-3M melanoma
[25] = system: MCF7 breast
[26] = system: MDA-MB-231 breast
[27] = system: MDA-MB-435
[28] = system: MOLT-4 leukemia
[29] = system: NCI-H226 lung
[30] = system: NCI-H23 lung
[31] = system: NCI-H460 lung
[32] = system: NCI-H522 lung
[33] = system: NCI/ADR-RES ovarian
[34] = system: OVCAR-3 ovarian
[35] = system: OVCAR-4 ovarian
[36] = system: OVCAR-5 ovarian
[37] = system: OVCAR-8 ovarian
[38] = system: PC-3 prostate
[39] = system: RPMI-8226 leukemia
[40] = system: RXF 393 renal
[41] = system: SF-268 CNS
[42] = system: SF-295 CNS
[43] = system: SF-539 CNS
[44] = system: SK-MEL-2 melanoma
[45] = system: SK-MEL-28 melanoma
[46] = system: SK-MEL-5 melanoma
[47] = system: SK-OV-3 ovarian
[48] = system: SN12C renal
[49] = system: SNB-19 CNS
[50] = system: SNB-75 CNS
[51] = system: SR leukemia
[52] = system: SW-620 colon
[53] = system: T-47D breast
[54] = system: TK-10 renal
[55] = system: U251 CNS
[56] = system: UACC-257 melanoma
[57] = system: UACC-62 melanoma
[58] = system: UO-31 renal

## COc1cc2c3c(n(CCCN4CCC[C@H]4C(N)=O)c(=O)c2cc1OC)-c1cc2c(cc1C3=O)OCO2
[1]
  GI50: 39.2 nM
  TGI: 1530 nM
[2]
  TGI: > 100 µM
[3]
  GI50: 103 nM
  TGI: > 57.3 µM
[4]
  GI50: 27.4 nM
  TGI: 3.86 µM
[5]
  GI50: 70.7 nM
  TGI: 13.9 µM
[6]
  GI50: 16.2 nM
  TGI: 20.7 µM
[7]
  GI50: < 14.6 nM
  TGI: 4.6 µM
[8]
  GI50: 223 nM
  TGI: > 100 µM
[9]
  GI50: 38.2 nM
  TGI: 12.6 µM
[10]
  TGI: > 100 µM
[11]
  GI50: 224 nM
  TGI: 13.8 µM
[12]
  GI50: 32.2 nM
  TGI: 3.67 µM
[13]
  GI50: 318 nM
  TGI: 5.8 µM
[14]
  GI50: 37.1 nM
  TGI: 3.7 µM
[15]
  GI50: 29.3 nM
  TGI: 12.7 µM
[16]
  GI50: 808 nM
  TGI: > 29.5 µM
[17]
  GI50: > 100 µM
  TGI: > 100 µM
[18]
  GI50: 67.4 nM
  TGI: 671 nM
[19]
  GI50: 379 nM
  TGI: 34.9 µM
[20]
  GI50: 41 nM
  TGI: 2580 nM
[21]
  GI50: 415 nM
  TGI: 11.1 µM
[22]
  GI50: 19.3 nM
  TGI: 485 nM
[23]
  GI50: 35.8 nM
  TGI: 2460 nM
[24]
  GI50: 375 nM
  TGI: > 57 µM
[25]
  GI50: < 10.7 nM
  TGI: 1420 nM
[26]
  GI50: 1160 nM
  TGI: 16.2 µM
[27]
  GI50: 148 nM
  TGI: 14 µM
[28]
  GI50: < 12.5 nM
  TGI: 178 nM
[29]
  GI50: 48.1 nM
  TGI: 1180 nM
[30]
  GI50: 44.8 nM
  TGI: 2320 nM
[31]
  GI50: < 15.2 nM
[32]
  GI50: 23.6 nM
  TGI: 4.48 µM
[33]
  GI50: 154 nM
  TGI: > 100 µM
[34]
  GI50: 161 nM
  TGI: 3.66 µM
[35]
  GI50: 905 nM
  TGI: 5.69 µM
[36]
  GI50: 319 nM
  TGI: 26.5 µM
[37]
  GI50: 78.3 nM
  TGI: 2710 nM
[38]
  GI50: 329 nM
  TGI: 22.6 µM
[39]
  GI50: 82.9 nM
  TGI: 2360 nM
[40]
  GI50: 167 nM
  TGI: 2320 nM
[41]
  GI50: 39.8 nM
  TGI: > 100 µM
[42]
  GI50: 17.9 nM
  TGI: 15 µM
[43]
  GI50: 29.6 nM
  TGI: 541 nM
[44]
  GI50: > 100 µM
  TGI: > 100 µM
[45]
  GI50: 1880 nM
  TGI: > 100 µM
[46]
  GI50: 40.7 nM
  TGI: 199 nM
[47]
  GI50: 39.6 nM
  TGI: 1260 nM
[48]
  GI50: 42.2 nM
  TGI: > 52.4 µM
[49]
  GI50: 40.5 nM
  TGI: > 100 µM
[50]
  GI50: 30.1 nM
  TGI: 1200 nM
[51]
  TGI: 540 nM
[52]
  GI50: 89.7 nM
  TGI: > 48.2 µM
[53]
  GI50: 31.3 nM
[54]
  GI50: > 42.3 µM
  TGI: > 100 µM
[55]
  GI50: 24.9 nM
  TGI: 1890 nM
[56]
  GI50: 232 nM
  TGI: > 100 µM
[57]
  GI50: 19.3 nM
  TGI: 3.21 µM
[58]
  GI50: 40.9 nM
  TGI: > 41 µM
